In US9005633B2 (priority 2009, dated 2015):
Like-named read-outs stand apart in the source and are kept apart here.

Key:
Conditions in all cases: 10 ug/ml AMT, 200 mW/cm2 UV-A
YF (FMD 1240) = assay type: cell-based, Yellow Fever (YF)
[1] = tested on: WNV (CDC) M29539 (NY99-35262-11); assay: AMT photo-inactivation of arbovirus: West Nile Virus; assay type: cell-based, West Nile Virus (WNV)
SLE TBH-28 CDC M29777 = assay: AMT photo-inactivation of arbovirus: Saint Louis Encephalitis; assay type: cell-based, Saint Louis Encephalitis (SLE)
VEE TC 83 TVB 5215 = assay type: cell-based, Venezuelan Equine Encephalitis (VEE)

How did the “YF (FMD 1240) titer after AMT and UV-A” value (YF (FMD 1240); 0 minutes) turn out when `Cc1oc2c(C)c3oc(=O)cc(C)c3cc2c1CN.Cl` [AMT, 4′-Aminomethyltrioxsalen hydrochloride] was run?
Its value is 1.47E+05 PFU/ml.

And the “YF (FMD 1240) titer after AMT and UV-A” value (YF (FMD 1240); 1 minute)?
Its value is 3.68E+04 PFU/ml.

And the “YF (FMD 1240) titer after AMT and UV-A” value (YF (FMD 1240); 5 minutes)?
The value was 9.00E+01 PFU/ml.

And the “YF (FMD 1240) titer after AMT and UV-A” value (YF (FMD 1240); 10 minutes)?
Its value is 0 PFU/ml.

And the “YF (FMD 1240) titer after AMT and UV-A” value (YF (FMD 1240); 20 minutes)?
Its value is 0 PFU/ml.

What about the “WNV (CDC) M29539 (NY99-35262-11) titer after AMT and UV-A” value (shortened to “WNV (CDC) M29539 (NY99-35262-11) titer”) ([1]; 0 minutes) of the same compound?
The value was 8.00E+04 PFU/ml.

What about the “WNV (CDC) M29539 (NY99-35262-11) titer” value ([1]; 1 minute) of the same compound?
The value was 1.68E+04 PFU/ml.

What about the “WNV (CDC) M29539 (NY99-35262-11) titer” value ([1]; 5 minutes) of the same compound?
Its value is 5.00E+01 PFU/ml.

And the “WNV (CDC) M29539 (NY99-35262-11) titer” value ([1]; 10 minutes)?
Its value is 0 PFU/ml.

And the “WNV (CDC) M29539 (NY99-35262-11) titer” value ([1]; 20 minutes)?
The value was 0 PFU/ml.

And the “SLE TBH-28 CDC M29777 titer after AMT and UV-A” value (from here on “SLE TBH-28 CDC M29777 titer”) (SLE TBH-28 CDC M29777; 0 minutes)?
The value was 3.20E+03 PFU/ml.

What about the “SLE TBH-28 CDC M29777 titer” value (SLE TBH-28 CDC M29777; 1 minute) of the same compound?
Its value is 8.00E+01 PFU/ml.

And the “SLE TBH-28 CDC M29777 titer” value (SLE TBH-28 CDC M29777; 5 minutes)?
The value was 0 PFU/ml.

What about the “SLE TBH-28 CDC M29777 titer” value (SLE TBH-28 CDC M29777; 10 minutes) of the same compound?
The value was 0 PFU/ml.

And the “SLE TBH-28 CDC M29777 titer” value (SLE TBH-28 CDC M29777; 20 minutes)?
Its value is 0 PFU/ml.

What about the “VEE TC 83 TVB 5215 titer after AMT and UV-A” value (from here on “VEE TC 83 TVB 5215 titer”) (VEE TC 83 TVB 5215; 0 minutes) of the same compound?
The value was 1.72E+09 PFU/ml.

What about the “VEE TC 83 TVB 5215 titer” value (VEE TC 83 TVB 5215; 1 minute) of the same compound?
Its value is 1.60E+08 PFU/ml.

And the “VEE TC 83 TVB 5215 titer” value (VEE TC 83 TVB 5215; 5 minutes)?
The value was 4.80E+04 PFU/ml.

What about the “VEE TC 83 TVB 5215 titer” value (VEE TC 83 TVB 5215; 10 minutes) of the same compound?
The value was 1.50E+02 PFU/ml.

And the “VEE TC 83 TVB 5215 titer” value (VEE TC 83 TVB 5215; 20 minutes)?
The value was 0 PFU/ml.
